# Data: patent US20230212222A1 (ANYGEN CO., LTD., priority 2020, published 2023)
# Square brackets hold non-standard residues; d marks the D form. Peptide text beside a SMILES is read from it. * marks the point of attachment. His(Trt) = N[C@@H](Cc1cn(C(c2ccccc2)(c2ccccc2)c2ccccc2)cn1)C(=O)O; His(τ-CHPh2) = N[C@@H](Cc1cn(C(c2ccccc2)c2ccccc2)cn1)C(=O)O; Tyr(3-NO2) = N[C@@H](Cc1ccc(O)c([N+](=O)[O-])c1)C(=O)O; Tyr(3-Cl) = N[C@@H](Cc1ccc(O)c(Cl)c1)C(=O)O; dPhe(4-Me) = Cc1ccc(C[C@@H](N)C(=O)O)cc1; Dmt = Cc1cc(O)cc(C)c1C[C@H](N)C(=O)O; Octanoyl = CCCCCCCC(=O)*
# Molecular target: T1, GPR39 (Homo sapiens, UniProt O43194)
# T1 sequence (O43194 1-453): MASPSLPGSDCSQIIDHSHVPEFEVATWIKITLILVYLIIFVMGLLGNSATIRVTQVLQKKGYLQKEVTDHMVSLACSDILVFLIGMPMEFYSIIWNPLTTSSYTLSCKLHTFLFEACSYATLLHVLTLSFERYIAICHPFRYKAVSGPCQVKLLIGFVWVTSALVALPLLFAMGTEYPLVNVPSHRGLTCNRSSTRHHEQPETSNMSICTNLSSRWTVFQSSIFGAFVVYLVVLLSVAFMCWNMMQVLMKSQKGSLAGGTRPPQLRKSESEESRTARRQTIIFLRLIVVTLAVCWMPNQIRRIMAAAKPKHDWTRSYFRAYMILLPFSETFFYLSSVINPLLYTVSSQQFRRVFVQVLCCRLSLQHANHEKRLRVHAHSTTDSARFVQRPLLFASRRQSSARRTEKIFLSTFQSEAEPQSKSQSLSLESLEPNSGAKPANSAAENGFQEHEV
# Test: not given
# Details: not given
row,ECmax (-fold induction over basal),SMILES
1,16.2 ± 1.5 -fold induction over basal,"CCCCCCCC(=O)NCCCC[C@H](NC(=O)[C@@H](N)Cc1cn(C(c2ccccc2)(c2ccccc2)c2ccccc2)cn1)C(=O)N[C@@H](Cc1ccccc1)C(=O)N[C@@H](CO)C(=O)O [HKFY-50, N6-octanoyl-N2-(Nt-trityl-L-histidyl)-L-lysyl-L-phenylalanyl-L-serine] (H-[His(Trt)]K(Octanoyl)FS-OH)"
2,14.4 ± 1.9 -fold induction over basal,"CCCCCCCC(=O)NCCCC[C@H](NC(=O)[C@@H](N)Cc1cn(C(c2ccccc2)(c2ccccc2)c2ccccc2)cn1)C(=O)N[C@@H](CC(C)C)C(=O)N[C@@H](Cc1ccc(O)cc1)C(=O)O [HKFY-51, N6-octanoyl-N2-(Nt-trityl-L-histidyl)-L-lysyl-L-leucyl-L-tyrosine] (H-[His(Trt)]K(Octanoyl)LY-OH)"
3,15.5 ± 2.2 -fold induction over basal,"C[C@H](NC(=O)[C@H](CCC(N)=O)NC(=O)[C@H](CCC(N)=O)NC(=O)[C@H](CC(=O)O)NC(=O)[C@H](Cc1ccc(O)cc1)NC(=O)[C@H](Cc1ccccc1)NC(=O)[C@@H](N)Cc1cn(C(c2ccccc2)(c2ccccc2)c2ccccc2)cn1)C(=O)N[C@@H](CCCNC(=N)N)C(=O)N[C@@H](Cc1ccccc1)C(N)=O [HKFY-52, (6S,9S,12S,15S,18S)-1-amino-6-(((S)-1-amino-1-oxo-3-phenylpropan-2-yl)carbamoyl)-18-((S)-2-((S)-2-((S)-2-amino-3-(1-trityl-1H-imidazol-4-yl)propanamido)-3-phenylpropanamido)-3-(4-hydroxyphenyl)propanamido)-12,15-bis(3-amino-3-oxopropyl)-1-imino-9-methyl-8,11,14,17-tetraoxo-2,7,10,13,16-pentaazaicosan-20-oic acid] (H-[His(Trt)]FYDQQARF-NH2)"
4,8 ± 2.12 -fold induction over basal,"CCCCCCCC(=O)NCCCC[C@H](NC(=O)[C@H](CO)NC(=O)CNC(=O)[C@@H](N)Cc1cn(C(c2ccccc2)(c2ccccc2)c2ccccc2)cn1)C(=O)N[C@@H](Cc1ccccc1)C(=O)N[C@@H](Cc1ccc(O)cc1)C(=O)O [HKFY-53, N6-octanoyl-N2-(Nt-trityl-L-histidylglycyl-L-seryl)-L-lysyl-L-phenylalanyl-L-tyrosine] (H-[His(Trt)]GSK(Octanoyl)FY-OH)"
5,16.8 ± 2.5 -fold induction over basal,"CCCCCCCC(=O)NCCCC[C@H](N)C(=O)N[C@@H](Cc1cn(C(c2ccccc2)(c2ccccc2)c2ccccc2)cn1)C(=O)N[C@@H](Cc1ccccc1)C(=O)N[C@@H](Cc1ccc(O)cc1)C(=O)O [HKFY-55, Na-(N6-octanoyl-L-lysyl)-Nt-trityl-L-histidyl-L-phenylalanyl-L-tyrosine] (H-K(Octanoyl)[His(Trt)]FY-OH)"
6,6.76 ± 2.2 -fold induction over basal,"CCCCCCCC(=O)NCCCC[C@H](NC(=O)[C@@H](N)Cc1cn(-c2ccccc2)c(-c2ccccc2)n1)C(=O)N[C@H](Cc1ccc(C)cc1)C(=O)N[C@@H](Cc1ccc(O)cc1)C(=O)O [HKFY-59, ((R)-2-((S)-2-((S)-2-amino-3-(1,2-diphenyl-1H-imidazol-4-yl)propanamido)-6-octanamidohexanamido)-3-(p-tolyl)propanoyl)-L-tyrosine]"
7,28.1 ± 2.1 -fold induction over basal,"CCCCCCCC(=O)NCCCC[C@H](NC(=O)[C@H](N)Cc1cn(C(c2ccccc2)c2ccccc2)cn1)C(=O)N[C@H](Cc1ccc(C)cc1)C(=O)N[C@@H](Cc1ccc(O)cc1)C(=O)O [HKFY-62, ((R)-2-((S)-2-((R)-2-amino-3-(1-benzhydryl-1H-imidazol-4-yl)propanamido)-6-octanamidohexanamido)-3-(p-tolyl)propanoyl)-L-tyrosine]"
8,10.2 ± 1.51 -fold induction over basal,"CCCCCCCC(=O)NCCCC[C@H](NC(=O)[C@@H](N)Cc1cn(C(c2ccccc2)c2ccccc2)cn1)C(=O)N[C@H](Cc1ccc(C)cc1)C(=O)N[C@@H](Cc1ccc(O)c(Cl)c1)C(=O)O [HKFY-67, (S)-2-((R)-2-((S)-2-((S)-2-amino-3-(1-benzhydryl-1H-imidazol-4-yl)propanamido)-6-octanamidohexanamido)-3-(p-tolyl)propanamido)-3-(3-chloro-4-hydroxyphenyl)propanoic acid] (H-[His(τ-CHPh2)]K(Octanoyl)[dPhe(4-Me)][Tyr(3-Cl)]-OH)"
9,10.8 ± 1.41 -fold induction over basal,"CCCCCCCC(=O)NCCCC[C@H](NC(=O)[C@@H](N)Cc1cn(C(c2ccccc2)c2ccccc2)cn1)C(=O)N[C@H](Cc1ccc(C)cc1)C(=O)N[C@@H](Cc1ccc(O)c([N+](=O)[O-])c1)C(=O)O [HKFY-68, (S)-2-((R)-2-((S)-2-((S)-2-amino-3-(1-benzhydryl-1H-imidazol-4-yl)propanamido)-6-octanamidohexanamido)-3-(p-tolyl)propanamido)-3-(4-hydroxy-3-nitrophenyl)propanoic acid] (H-[His(τ-CHPh2)]K(Octanoyl)[dPhe(4-Me)][Tyr(3-NO2)]-OH)"

# Continued, molecule first:
row,SMILES,ECmax (-fold induction over basal)
1,"CCCCCCCC(=O)NCCCC[C@H](N)C(=O)N[C@@H](Cc1ccccc1)C(=O)N[C@@H](Cc1ccc(O)cc1)C(=O)O [HKFY-54, N6-octanoyl-L-lysyl-L-phenylalanyl-L-tyrosine] (H-Lys(Octanoyl)-Phe-Tyr-OH)",7.8 ± 2.5 -fold induction over basal
2,"CCCCCCCC(=O)NCCCC[C@H](NC(=O)[C@@H](N)Cc1c[nH]c(-c2ccc(C(C)(C)C)cc2)n1)C(=O)N[C@H](Cc1ccc(C)cc1)C(=O)N[C@@H](Cc1ccc(O)cc1)C(=O)O [HKFY-60, ((R)-2-((S)-2-((S)-2-amino-3-(2-(4-(tert-butyl)phenyl)-1H-imidazol-4-yl)propanamido)-6-octanamidohexanamido)-3-(p-tolyl)propanoyl)-L-tyrosine]",28.2 ± 2.5 -fold induction over basal
3,"CCCCCCCC(=O)NCCCC[C@H](NC(=O)[C@@H](N)Cc1cn(S(=O)(=O)c2ccc(C)cc2)cn1)C(=O)N[C@H](Cc1ccc(C)cc1)C(=O)N[C@@H](Cc1ccc(O)cc1)C(=O)O [HKFY-75, ((R)-2-((S)-2-((S)-2-amino-3-(1-tosyl-1H-imidazol-4-yl)propanamido)-6-octanamidohexanamido)-3-(p-tolyl)propanoyl)-L-tyrosine]",15.9 ± 4.12 -fold induction over basal
4,"CCCCCCCC(=O)NCCCC[C@H](NC(=O)[C@@H](N)Cc1cn(C(c2ccccc2)c2ccccc2)cn1)C(=O)O [HKFY-79, N2-(Nt-benzhydryl-L-histidyl)-N6-octanoyl-L-lysine]",11.2 ± 1.4 -fold induction over basal

# Molecular target: T1, GPR39
# Test: luciferase assay system (SRE luciferase reporter gene) for GPR39 in CV-1 cells
# Details: not given
row,SMILES,EC50
1,CCCCCCCC(=O)NCCCC[C@H](NC(=O)[C@@H](N)Cc1c[n+](CCCC2CCCCC2)cn1CCCC1CCCCC1)C(=O)N[C@@H](Cc1ccccc1)C(=O)N[C@@H](Cc1ccc(O)cc1)C(=O)O,33.7 ± 1.3 µM
2,"CCCCCCCC(=O)NCCCC[C@H](NC(=O)[C@@H](N)Cc1cn(C(c2ccccc2)c2ccccc2)cn1)C(=O)N[C@H](Cc1ccc(C)cc1)C(=O)N[C@@H](Cc1c(C)cc(O)cc1C)C(=O)O [HKFY-36, (S)-2-((R)-2-((S)-2-((S)-2-amino-3-(1-benzhydryl-1H-imidazol-4-yl)propanamido)-6-octanamidohexanamido)-3-(p-tolyl)propanamido)-3-(4-hydroxy-2,6-dimethylphenyl)propanoic acid] (H-[His(τ-CHPh2)]K(Octanoyl)[dPhe(4-Me)][Dmt]-OH)",0.15 ± 0.05 µM

# Same assay, conditions: CV-1 cells, GPR39 and SRE luciferase adenovirus, treated 6 hours, luminometer
row,SMILES,ECmax (-fold induction over basal)
1,CCCCCCCC(=O)NCCCC[C@H](NC(=O)[C@@H](N)Cc1c[n+](CCCc2ccccc2)cn1CCCc1ccccc1)C(=O)N[C@@H](Cc1ccccc1)C(=O)N[C@@H](Cc1ccc(O)cc1)C(=O)O,15 ± 2.12 -fold induction over basal
2,CCCCCCCC(=O)NCCCC[C@H](NC(=O)[C@@H](N)Cc1cncn1CCCC1CCCCC1)C(=O)N[C@@H](Cc1ccccc1)C(=O)N[C@@H](Cc1ccc(O)cc1)C(=O)O,16 ± 2.2 -fold induction over basal
3,CCCCCCCC(=O)NCCCC[C@H](NC(=O)[C@@H](N)Cc1c[n+](CCCC2CCCCC2)cn1CCCC1CCCCC1)C(=O)N[C@@H](Cc1ccccc1)C(=O)N[C@@H](Cc1ccc(O)cc1)C(=O)O,17.3 ± 1.22 -fold induction over basal
4,"CCCCCCCC(=O)NCCCC[C@H](NC(=O)[C@@H](N)Cc1cn(C(c2ccccc2)c2ccccc2)cn1)C(=O)N[C@H](Cc1ccc(C)cc1)C(=O)N[C@@H](Cc1c(C)cc(O)cc1C)C(=O)O [HKFY-36, (S)-2-((R)-2-((S)-2-((S)-2-amino-3-(1-benzhydryl-1H-imidazol-4-yl)propanamido)-6-octanamidohexanamido)-3-(p-tolyl)propanamido)-3-(4-hydroxy-2,6-dimethylphenyl)propanoic acid] (H-[His(τ-CHPh2)]K(Octanoyl)[dPhe(4-Me)][Dmt]-OH)",9.9 ± 0.28 -fold induction over basal
5,"CCCCCCCC(=O)NCCCC[C@H](NC(=O)[C@@H](N)Cc1cn(C(c2ccccc2)(c2ccccc2)c2ccccc2)cn1)C(=O)N[C@@H](Cc1ccccc1)C(=O)N[C@@H](Cc1ccc(O)cc1)C(=O)N[C@@H](CO)C(=O)N[C@@H](CCC(N)=O)C(=O)N[C@@H](CC(=O)O)C(=O)NCC(=O)N[C@@H](C)C(=O)N[C@@H](CCCNC(=N)N)C(=O)N[C@@H](Cc1ccccc1)C(N)=O [HKFY-41, (3S,6S,9S,12S,15S,18S)-3-((2-(((S)-1-(((S)-1-(((S)-1-amino-1-oxo-3-phenylpropan-2-yl)amino)-5-guanidino-1-oxopentan-2-yl)amino)-1-oxopropan-2-yl)amino)-2-oxoethyl)carbamoyl)-18-((S)-2-amino-3-(1-trityl-1H-imidazol-4-yl)propanamido)-6-(3-amino-3-oxopropyl)-15-benzyl-12-(4-hydroxybenzyl)-9-(hydroxymethyl)-5,8,11,14,17,24-hexaoxo-4,7,10,13,16,23-hexaazahentriacontanoic acid] (H-[His(Trt)]K(Octanoyl)FYSQDGARF-NH2)",12.2 ± 0.02 -fold induction over basal
